Test results as given in PMC7827417, “Steroid Glycosides Hyrcanoside and Deglucohyrcanoside: On Isolation, Structural Identification, and Anticancer Activity” (Foods, 2021).

What was measured:
[1] = test system: MRC-5; assay: MTS cytotoxic assay, MRC-5; format: cell-based; conditions: Homo sapiens, MRC5, 72 h
Source text: (§1) If not indicated otherwise, the cell lines were purchased from the American Type Culture Collection (ATCC). […] K562 is the erythroid-myeloid precursor cell line derived from chronic myeloid leukemia carrying the BCR-ABL hybrid gene. A549, MCF-7, PC-3, 5637, U-2 OS, and MiaPaCa-2 are cells derived from lung, breast, prostate, bladder carcinoma, osteosarcoma, and pancreatic adenocarcinoma, respectively. HEK 293T are transformed human embryonic kidney cells, and L929 (Sigma, St. Louis, MS, USA) are transformed mouse fibroblasts. HCT116, cells from colorectal carcinoma, and their p53 gene knock-out variant (HCT116p53-/-) were purchased from Horizon Discovery. This cell line is a model of human tumors bearing p53 loss-of-function mutations or biallelic deletion of the p53 gene, frequently associated with poor prognosis. The MRC-5 and BJ cells were used as noncancerous cells; more specifically, they are human fibroblasts from the lungs and foreskin, respectively. According to the supplier’s recommendations, all cells were cultured at 37 °C in a 5% CO2 atmosphere and 100% humidity. The culture media used were: DMEM, RPMI 1640, and MEM (according to a cell line); all were supplemented with 5 g L^−1 glucose, 10% fetal calf serum, 2 mM glutamine, 100 U mL^−1 penicillin, 100 µg mL^−1 streptomycin, and NaHCO3. Cells were passaged every two or three days using 0.25% trypsin plus 0.01% EDTA (ethylenediamine tetraacetic acid) in phosphate-buffered saline.
(§2) To evaluate compound cytotoxicity, cells were seeded in 384-well microtiter plates in a volume of […]. The next day, aliquots of the tested derivatives were transferred with Echo550 acoustic liquid handler (Labcyte) to obtain dose response curves with dilution factor 4. The experiments were performed in technical duplicates and three or more biological replicates. After 72 h of incubation in a humidified incubator, […] of the MTS/PMS stock solution were pipetted into each well. After another 1–4 h of incubation, the absorbance at 490 nm was measured using an EnVision Multilabel Plate Reader (PerkinElmer).

[2] = test system: U-2 OS; assay: MTS cytotoxic assay, U-2 OS; format: cell-based; conditions: Homo sapiens, U2OS, 72 h
Source text: as §1, §2

[3] = test system: MiaPaCa-2; assay: MTS cytotoxic assay, MiaPaCa-2; format: cell-based; conditions: Homo sapiens, MIA PaCa-2, 72 h
Source text: as §1, §2

[4] = test system: CCRF-CEM cells; assay: BrDU incorporation analysis (DNA synthesis); format: cell-based, human; conditions: % of positive cells
Protocol: The cells were cultured in the same way as the cell cycle analysis method. Just before harvesting, 5-bromo-2′-deoxyuridine (BrDU) of 10 µM concentration was added to the cells for pulse-labeling for 30 min. Then, the cells were fixed with −20 °C cold 70% ethanol and stored in a freezer for 16 h. Before antibody staining, the samples were incubated on ice for 30 min, washed once with phosphate-buffered saline (PBS), and re-suspended in 2 M of HCl for 30 min at room temperature to hydrolyze their DNA. After neutralization with 0.1 M of Na2B4O7 (borax) solution, the cells were washed with PBS containing 0.5% Tween-20 and 1% BSA. This was followed by staining with the primary anti-BrDU antibody (Exbio) for 30 min at room temperature. Then, the cells were washed with PBS and stained with a secondary anti-mouse antibody conjugated to fluorescein isothiocyanate (Merck-Sigma, St. Louis, MS, USA) at room temperature in the dark. After another washing with PBS and incubation with propidium iodide (0.1 mg·mL^−1) and RNAse A (0.5 mg·mL^−1) for 1 h at room temperature in the dark, the cells were analyzed by flow cytometry using a 488 nm laser (FACSCalibur, Becton Dickinson, Franklin Lakes, NJ, USA).

[5] = test system: HEK 293T; assay: MTS cytotoxic assay, HEK 293T; format: cell-based; conditions: Homo sapiens, HEK-293T, 72 h
Source text: as §1, §2

[6] = test system: A549; assay: MTS cytotoxic assay, A549; format: cell-based; conditions: Homo sapiens, A549, 72 h
Source text: as §1, §2

[7] = test system: CCRF-CEM cells; assay: Cell cycle arrest and cell death analysis by flow cytometry (propidium iodide, pH3Ser10); format: cell-based, human; conditions: % of positive cells
Protocol: Together with the CG-treated cells, a vehicle-treated sample was harvested at the same time point. After 24 h, the cells were washed with cold phosphate-buffered saline, fixed dropwise in 70% ethanol, and stored overnight at −20 °C. The cells were then washed with hypotonic citrate buffer, treated with RNAse (50 µg mL^−1), and stained with propidium iodide. Flow cytometry using a 488 nm laser (FACS-Calibur, Becton Dickinson, NJ, USA) was used for measurement. The cell cycle was analyzed by the ModFitLT program (Verity), and apoptosis was measured in a logarithmic model expressing the percentage of particles with a lower propidium content than cells in the G0/G1 phase (<G1) of the cell cycle in the CellQuest program (Becton Dickinson). Half of the sample was used to label cells with pH3^Ser10-FITC antibody (Exbio) for subsequent flow cytometry analysis of mitotic cells.

[8] = test system: CCRF-CEM cells; assay: BrU incorporation analysis (RNA synthesis); format: cell-based, human; conditions: % of positive cells
Protocol: The cells were cultured and processed as described above. Before harvesting, the cells were pulse-labeled with 1 mM of 5-bromouridine (BrU) for 30 min. The cells were then fixed in 1% buffered paraformaldehyde with 0.05% NP-40 at room temperature for 15 min, and then stored at 4 °C overnight. Before measurement, they were washed with 1% glycine in PBS, washed again with PBS, and stained with primary anti-BrdU antibody cross-reactive to BrU (Exbio) for 30 min at room temperature in the dark. From this point on, the experiment was performed exactly as in the method described above.

[9] = test system: MCF-7; assay: MTS cytotoxic assay, MCF-7; format: cell-based; conditions: Homo sapiens, MCF7, 72 h
Source text: as §1, §2

[10] = test system: L929; assay: MTS cytotoxic assay, L929; format: cell-based, mouse; conditions: Mus musculus, L929, 72 h
Source text: as §1, §2

[11] = test system: 5637; assay: MTS cytotoxic assay, 5637; format: cell-based; conditions: Homo sapiens, 72 h
Source text: as §1, §2

[12] = test system: CCRF-CEM; assay: MTS cytotoxic assay, CCRF-CEM; format: cell-based; conditions: Homo sapiens, 72 h
Source text: as §1, §2

[13] = test system: HCT116; assay: MTS cytotoxic assay, HCT116; format: cell-based; conditions: Homo sapiens, HCT-116, 72 h
Source text: as §1, §2

[14] = test system: PC-3; assay: MTS cytotoxic assay, PC-3; format: cell-based; conditions: Homo sapiens, PC-3, 72 h
Source text: as §1, §2

For `C[C@H]1O[C@@H](O[C@H]2[C@@H](O)C[C@H](O[C@H]3[C@@H](O)C[C@H](O[C@H]4CC[C@@]5(C)[C@H](CC[C@@H]6[C@@H]5CC[C@]5(C)[C@@H](C7=CC(=O)OC7)CC[C@]65O)C4)O[C@@H]3C)O[C@@H]2C)C[C@H](O)[C@@H]1O` [Dg, digitoxin], the IC50 [1] was 78 ± 1.9 nM, the IC50 [2] was 45 ± 2.1 nM and the IC50 [3] was 79 ± 2.8 nM. The BrDU ([4]; 1 × IC50, 24 h) was 35.91%, the BrDU ([4]; 5 × IC50, 24 h) was 23.52% and the IC50 [5] was 69 ± 2.1 nM. For the same compound, the IC50 [6] was 19 ± 2 nM, the “< G1 (apoptotic cells)” value ([7]; 1 × IC50, 24 h) was 7.56% and the G0/G1 ([7]; 1 × IC50, 24 h) was 33.21%. For the same compound, the G2/M ([7]; 1 × IC50, 24 h) was 30.51%, the “M (Phospho-Histone3 (Ser10))” value ([7]; 1 × IC50, 24 h) was 1.97% and the S ([7]; 1 × IC50, 24 h) was 36.28%. For the same compound, the “< G1 (apoptotic cells)” value ([7]; 5 × IC50, 24 h) was 10.35%, the G0/G1 ([7]; 5 × IC50, 24 h) was 33.71% and the G2/M ([7]; 5 × IC50, 24 h) was 44.03%. The “M (Phospho-Histone3 (Ser10))” value ([7]; 5 × IC50, 24 h) was 1.28%, the S ([7]; 5 × IC50, 24 h) was 22.26% and the BrU ([8]; 1 × IC50, 24 h) was 42.99%. For the same compound, the BrU ([8]; 5 × IC50, 24 h) was 3.88%, the IC50 [9] was 78 ± 1.1 nM and the IC50 [10] was over 10000 nM. For the same compound, the IC50 [11] was 58 ± 1.6 nM, the IC50 [12] was 20 ± 3.5 nM and the IC50 [13] was 20 ± 1.5 nM. For the same compound, the IC50 [14] was 69 ± 2.2 nM.
